Experimental data reported in US10392369B2, “N-[(pyrimidinyloxy)propanyl]benzamides” (Boehringer Ingelheim International GmbH, priority 2016, dated 2019).
Like-named read-outs stand apart in the source and are kept apart here.

Experiments:
human orexin 2 receptor = biological target: T1, human orexin 2 receptor (Homo sapiens, UniProt O43614); assay: Assay B: OX2R IP1 (in vitro OX2R potency); format: cell-based; conditions: Table 3; 0.5 nM Orexin A
T1 construct: stably expressing the full-length human orexin 2 receptor; expressed in transfected cells; host or cells: CHO-K1 (CHO-K1/hOx2), co-expressing the aequorin photoprotein
T1 sequence (O43614 1-444): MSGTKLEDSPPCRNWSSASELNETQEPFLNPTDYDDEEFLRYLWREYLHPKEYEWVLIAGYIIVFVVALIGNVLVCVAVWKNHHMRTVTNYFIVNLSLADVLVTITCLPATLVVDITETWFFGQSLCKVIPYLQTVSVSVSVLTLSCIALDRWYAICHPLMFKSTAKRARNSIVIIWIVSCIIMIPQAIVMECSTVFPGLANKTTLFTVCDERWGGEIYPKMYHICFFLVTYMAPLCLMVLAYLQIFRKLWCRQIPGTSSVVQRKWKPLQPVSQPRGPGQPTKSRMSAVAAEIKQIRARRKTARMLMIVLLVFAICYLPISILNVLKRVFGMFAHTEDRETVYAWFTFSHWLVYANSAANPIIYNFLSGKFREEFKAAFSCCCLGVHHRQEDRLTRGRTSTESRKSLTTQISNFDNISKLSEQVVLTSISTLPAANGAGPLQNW
From the text: Activation of the orexin receptors expressed in cell lines results in an increase in intracellular IP3 concentration. IP1, a downstream metabolite of IP3, accumulates in cells following receptor activation and is stable in the presence of LiCl. Using Homogeneous Time-Resolved Fluorescence technology with Lumi4-Tb cryptate (commercially available from Cisbio Bioassay.) and a suitable fluorescence plate reader. […] Chem. Genomics 2009, 3, 22-32. This technique is used to characterize pharmacological modification of the orexin receptors.
B. In Vitro Testing of OX2R Potency: OX2R IP1
(§1) IP1 measurements are performed in CHO-K1 cells stably expressing the full-length human orexin 2 receptor and the aequorin photoprotein. Cells are cultivated in Ham's nutrient mixture F12 medium with 10% fetal calf serum, in a 37° C., 95% humidity and 5% CO2 incubator. The CHO-K1/hOx2 cell mass is expanded to larger cell numbers. The cells are obtained as frozen cells in cryo-vials and stored until use at −150° C. The viability of the cells after thawing is >90%. In preparation for the assay, 24 hours before the assay, the cells are thawed at 37° C. and immediately diluted with cell culture medium. After centrifugation, the cell pellet is resuspended in medium and then distributed into the assay plates with a density of 5000 cells/25 μL per well. The plates are incubated for one hour at room temperature to reduce edge effects before they are incubated for 24 hours at 37° C./5% CO2. Compounds are prepared by a 8-point serial dilution in DMSO and a final dilution step into assay buffer (HBSS with 20 mM HEPES, 0.1% BSA and 50 mM LiCl, pH 7.4) to ensure a final DMSO concentration of 1% in the assay.
(§2) On the day of the assay, cells in the plate are washed twice with 60 μL assay buffer (20 μL buffer remained in the wells after washing), followed by adding 5 μL per well of compounds diluted in assay buffer. After 15 minutes of incubation at room temperature 5 μL per well of Orexin A peptide (final concentration: 0.5 nM) dissolved in assay buffer is added to the assay plate. The assay plate is incubated for 60 minutes at 37° C. Then 5 μl per well of Anti-IP1-Cryptate Tb solution and 5 μl per well of IP1-d2 dilution are added to all well of the plate and the plate is incubated for a further 60 minutes light protected at room temperature. The emission at 615 nm and 665 nm (Excitation wavelength: 320 nm) are measured using an EnVision reader (PerkinElmer). The ratio between the emission at 665 nm and 615 is calculated by the reader.
(§3) 8-point four parametric non-linear curve fitting and determination of 1050 values and Hill slopes is performed using a regular analysis software e.g. AssayExplorer (Accelrys). In order to establish an agonist concentration independent parameter, Kb values are calculated using the following equation: IC50/((2+(A/EC50)^n)^1/n−1) (with A=concentration agonist, EC50=EC50 agonist, n=Hill slope agonist) (see P. Leff, I. G. Dougall, Trends Pharmacol. Sci. 1993, 14(4), 110-112).

human Orexin 1 receptor = biological target: T2, human Orexin 1 receptor (Homo sapiens, UniProt O43613); assay: Assay A: OX1R IP1 (in vitro OX1R potency); format: cell-based; conditions: for Kb: Table 3, read-out: Assay A OX1R Kb (Orexin A concentration); for OX1R selectivity over OX2R (selectivity ratio OX2R Kb/OX1R Kb) compared to Example 91 in WO2016/034882 / OX1R potency compared to Example 91 in WO2016/034882: in words, versus Example 91 in WO2016/034882
T2 construct: stably expressing the full-length human Orexin 1 receptor; expressed in transfected cells; host or cells: CHO-K1 (CHO-K1/hOx1), co-expressing the aequorin photoprotein
T2 sequence (O43613 1-425): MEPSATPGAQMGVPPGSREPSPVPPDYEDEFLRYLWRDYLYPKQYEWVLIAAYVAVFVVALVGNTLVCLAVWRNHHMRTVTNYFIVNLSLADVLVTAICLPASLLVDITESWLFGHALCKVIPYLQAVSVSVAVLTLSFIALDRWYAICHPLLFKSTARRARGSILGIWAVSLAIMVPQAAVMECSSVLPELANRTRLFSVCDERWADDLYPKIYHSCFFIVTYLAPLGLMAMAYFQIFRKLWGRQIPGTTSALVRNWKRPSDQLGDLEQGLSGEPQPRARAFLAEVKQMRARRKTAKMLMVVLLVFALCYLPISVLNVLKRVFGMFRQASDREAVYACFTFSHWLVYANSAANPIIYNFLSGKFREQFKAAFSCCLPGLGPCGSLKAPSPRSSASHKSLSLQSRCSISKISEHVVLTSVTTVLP
From the text: Activation of the orexin receptors expressed in cell lines results in an increase in intracellular IP3 concentration. IP1, a downstream metabolite of IP3, accumulates in cells following receptor activation and is stable in the presence of LiCl. Using Homogeneous Time-Resolved Fluorescence technology with Lumi4-Tb cryptate (commercially available from Cisbio Bioassay.) and a suitable fluorescence plate reader. […] This technique is used to characterize pharmacological modification of the orexin receptors.
A. In Vitro Testing of OX1R Potency: OX1R IP1
as §1, with “human Orexin 1” for “human orexin 2”, “The CHO-K1/hOx1” for “The CHO-K1/hOx2”, “C. […]” for “C. The viability of the cells after thawing is >90%.”, “is re-suspended” for “is resuspended”, “of 10000” for “of 5000”, “by an” for “by a”
as §2, with “0.5 nM and/or 50” for “0.5”, “added” for “added to all well of the plate”, “temperature.” for “temperature. The emission at 615 nm and 665 nm (Excitation wavelength: 320 nm) are measured using an EnVision reader (PerkinElmer). The ratio between the emission at 665 nm and 615 is calculated by the reader.”
as §3, with “IC50” for “1050”, “agonist).” for “agonist) (see P. Leff, I. G. Dougall, Trends Pharmacol. Sci. 1993, 14(4), 110-112).”

SMILES | Kb (human orexin 2 receptor) | Kb (human Orexin 1 receptor; 0.5 nM Orexin A) | Kb (human Orexin 1 receptor; 50 nM Orexin A) | OX1R selectivity over OX2R (selectivity ratio OX2R Kb/OX1R Kb) compared to Example 91 in WO2016/034882 (human Orexin 1 receptor) | OX2R Kb/OX1R Kb (human Orexin 1 receptor) | OX1R potency compared to Example 91 in WO2016/034882 (human Orexin 1 receptor)
CCN(C(=O)c1cccc(F)c1-n1nccn1)[C@@H](C)COc1ncc(C(F)(F)F)cn1 [Example 1] | 425 nM | 1.7 nM | 2.5 nM | more selective | – | –
CCN(C(=O)c1cc(C)c(C)cc1-n1nccn1)[C@@H](C)COc1ncc(C(F)(F)F)cn1 [Example 2] | 34 nM | – | 0.39 nM | – | 87 | increase in OX1R potency
CCN(C(=O)c1cc(C)ccc1-n1nccn1)[C@@H](C)COc1ncc(C(F)(F)F)cn1 [Example 5] | 156 nM | 1 nM | 1.1 nM | increase | – | increase
CCN(C(=O)c1ccc(F)cc1-n1nccn1)[C@@H](C)COc1ncc(C(F)(F)F)cn1 [Example 7] | 902 nM | 4.5 nM | – | more selective | 201 | –
CCN(C(=O)c1cc(C)ccc1-n1cccn1)[C@@H](C)COc1ncc(C(F)(F)F)cn1 [Example 8] | 502 nM | 2.2 nM | – | increase in OX1R selectivity | 228 | –
CCN(C(=O)c1ccc(C)c(C)c1-n1nccn1)[C@@H](C)COc1ncc(C(F)(F)F)cn1 [Example 10] | 565 nM | – | 0.65 nM | increase | 869 | increase
CCN(C(=O)c1cccc(C)c1-n1nccn1)[C@@H](C)COc1ncc(C(F)(F)F)cn1 [Example 11] | 160 nM | 1.3 nM | 1.4 nM | increase | – | increase
CCN(C(=O)c1ccc(C)cc1-n1nccn1)[C@@H](C)COc1ncc(C(F)(F)F)cn1 [Example 13] | 142 nM | 0.5 nM | 0.38 nM | increase | – | increase
CCN(C(=O)c1cc(OC)ccc1-n1nccn1)[C@@H](C)COc1ncc(C(F)(F)F)cn1 [Example 14] | 253 nM | 0.97 nM | 1.21 nM | increase | – | increase
CCN(C(=O)c1ccccc1-c1nc(C)no1)[C@@H](C)COc1ncc(C(F)(F)F)cn1 [Example 15] | 999 nM | 7.8 nM | – | increase in OX1R selectivity | 128 | –
CCN(C(=O)c1cccc(F)c1-c1nnc(C)o1)[C@@H](C)COc1ncc(C(F)(F)F)cn1 [Example 18] | 6640 nM | 16 nM | – | increase in OX1R selectivity | 415 | –
CCN(C(=O)c1ccc(C)cc1-c1nnc(C)o1)[C@@H](C)COc1ncc(C(F)(F)F)cn1 [Example 19] | 6640 nM | 7.3 nM | – | increase in OX1R selectivity | 909 | –
CCN(C(=O)c1cc(F)ccc1-n1nccn1)[C@@H](C)COc1ncc(C(F)(F)F)cn1 [Example 20] | 803 nM | 2.6 nM | – | more selective | 309 | –
CCN(C(=O)c1cccc(C)c1-c1nnc(C)o1)[C@@H](C)COc1ncc(C(F)(F)F)cn1 [Example 21] | 540 nM | 2 nM | 1.9 nM | increase in OX1R selectivity | – | –
CCN(C(=O)c1cc(F)cc(F)c1-n1nccn1)[C@@H](C)COc1ncc(C(F)(F)F)cn1 [Example 22] | 1460 nM | 3.6 nM | – | more selective | 406 | –
CCN(C(=O)c1ccccc1-c1noc(C)n1)[C@@H](C)COc1ncc(C(F)(F)F)cn1 [Example 23] | 435 nM | 2.1 nM | – | increase in OX1R selectivity | 207 | –
CCN(C(=O)c1ccccc1-n1nccn1)[C@@H](C)COc1ncc(C(F)(F)F)cn1 [Example 24] | 237 nM | 1.8 nM | 2.6 nM | – | – | –
